The values that follow come from patent publication US20230399312A1, “SUBSTITUTED PYRIMIDINES AND METHODS OF USE” (THERAVANCE BIOPHARMA R&D IP, LLC, priority 2020, published 2023).

The target in assay [1] is T1, recombinant human ALK5 (TGF-βR1) protein (Homo sapiens, UniProt P36897).
T1 construct: purchased Life Technologies PR9075A
T1 sequence (P36897 34-503): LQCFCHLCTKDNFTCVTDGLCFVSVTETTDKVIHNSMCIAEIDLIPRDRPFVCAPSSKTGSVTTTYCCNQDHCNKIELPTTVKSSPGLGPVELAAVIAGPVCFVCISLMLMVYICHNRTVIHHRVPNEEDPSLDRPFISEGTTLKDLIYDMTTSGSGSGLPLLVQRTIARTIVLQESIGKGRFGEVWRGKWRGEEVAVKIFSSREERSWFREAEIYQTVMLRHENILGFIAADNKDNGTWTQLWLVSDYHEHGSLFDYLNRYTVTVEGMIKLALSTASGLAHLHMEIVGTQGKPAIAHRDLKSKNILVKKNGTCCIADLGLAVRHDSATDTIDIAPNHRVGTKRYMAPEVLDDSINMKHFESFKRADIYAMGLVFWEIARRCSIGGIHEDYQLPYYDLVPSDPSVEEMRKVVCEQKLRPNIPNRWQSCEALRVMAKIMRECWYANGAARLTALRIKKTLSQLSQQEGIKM
In words: Biochemical ALK5 (TGF-βR1) assay to measure pKi (LANCE Ultra ULight kinase assay). Conditions: apparent pKi, converted from pIC50 by Cheng-Prusoff. An outline of the steps: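 Dose-response series of each compound were preincubated with the kinase for 60 minutes at room temperature. Phosphorylation proceeded for 60 minutes at 37 °C after ATP addition, was quenched with EDTA, and was detected with a europium anti-phospho-Thr1342 antibody by TR-FRET; pKi was calculated from pIC50.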

Assay [2] relates to TGF-β-stimulated SMAD3 phosphorylation in BEAS-2B cells. Nature of the assay: Cellular ALK5 potency assay, inhibition of TGF-β stimulated pSMAD3 formation in BEAS-2B cells. The class given is cell-based. The conditions noted are these: Homo sapiens, pSMAD3, TGF-β 10 ng/mL, read-out: BEAS2B pIC50 (converted). The gist of the method: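 Reported as pIC50, potency reflects dose-dependent loss of AlphaLISA pSMAD3 signal versus TGF-β-stimulated, compound-free BEAS-2B cells. Compound was applied for 1 h in BSA-containing HBSS buffer before a 30-min challenge with TGF-β at 10 ng/mL final.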

On to `Cc1cccc(-c2nccc(Nc3ccnc(Nc4ccc(C(=O)OCC5CCNCC5)nc4)n3)n2)n1` [Compound 587, 4-piperidylmethyl 5-[[4-[[2-(6-methyl-2-pyridyl)pyrimidin-4-yl]amino]pyrimidin-2-yl]amino]pyridine-2-carboxylate], for which the Ki in assay [1] is 0.0398 to 0.316 nM. For the same molecule, the IC50 in assay [2] is 25.1 to 158 nM.

`COCCOc1ccc(Nc2nccc(Nc3ccnc(-c4cccc(C)n4)n3)n2)cc1` [Compound 250, N2-[4-(2-methoxyethoxy)phenyl]-N4-[2-(6-methyl-2-pyridyl)pyrimidin-4-yl]pyrimidine-2,4-diamine]: the Ki in assay [1] is 0.398 to 3.16 nM. Also, in assay [2], the IC50 is 25.1 to 158 nM.

Turning to `Cc1cccc(-c2nccc(Nc3ccnc(Nc4cccc(NC(=O)C5CCNC5)c4)n3)n2)n1` (stereo not shown) [Compound 227, N-[3-[[4-[[2-(6-methyl-2-pyridyl)pyrimidin-4-yl]amino]pyrimidin-2-yl]amino]phenyl]pyrrolidine-3-carboxamide], the Ki in assay [1] was 0.0398 to 0.316 nM. In assay [2], the IC50 was ≤ 20 nM.

Turning to `Cc1cccc(-c2nccc(Nc3ccnc(Nc4ccc(N(C)C(=O)C5CCNCC5)cc4)n3)n2)n1` [Compound 416, N-methyl-N-[4-[[4-[[2-(6-methyl-2-pyridyl)pyrimidin-4-yl]amino]pyrimidin-2-yl]amino]phenyl]piperidine-4-carboxamide], in assay [1], the Ki is 0.0398 to 0.316 nM. Further, the IC50 in assay [2] is 200 to 1260 nM.

`Cc1cccc(-c2nccc(Nc3ccnc(Nc4ccc(-c5cnn(C)c5)cc4)n3)n2)n1` [Compound 56, N2-[4-(1-methylpyrazol-4-yl)phenyl]-N4-[2-(6-methyl-2-pyridyl)pyrimidin-4-yl]pyrimidine-2,4-diamine]: the Ki in assay [1] was 0.398 to 3.16 nM. In addition, in assay [2], the IC50 was 25.1 to 158 nM.

With `Cc1cccc(-c2nccc(Nc3ccnc(Nc4ccc(NCCN5CCNCC5)cc4)n3)n2)n1` [Compound 157, N4-[2-(6-methyl-2-pyridyl)pyrimidin-4-yl]-N2-[4-(2-piperazin-1-ylethylamino)phenyl]pyrimidine-2,4-diamine], the Ki in assay [1] was 0.0398 to 0.316 nM. Further, in assay [2], the IC50 was 200 to 1260 nM.

On to `CC[C@H](C)OC(=O)C1CN(Cc2ccc(Nc3nccc(Nc4ccnc(-c5cccc(C)n5)n4)n3)cc2)CCN1` (mixture of isomers) [Compound 382, [rac-(1S)-1-methylpropyl] 4-[[4-[[4-[[2-(6-methyl-2-pyridyl)pyrimidin-4-yl]amino]pyrimidin-2-yl]amino]phenyl]methyl] piperazine-2-carboxylate], for which, in assay [1], the Ki was 0.0398 to 0.316 nM. Also, the IC50 in assay [2] is 25.1 to 158 nM.

With `Cc1cccc(-c2nccc(Nc3ccnc(Nc4ccc(C(=O)OCC56CNCC5C6)nc4)n3)n2)n1` (stereo not shown) [Compound 557, 3-azabicyclo[3.1.0]hexan-1-ylmethyl 5-[[4-[[2-(6-methyl-2-pyridyl)pyrimidin-4-yl]amino]pyrimidin-2-yl]amino]pyridine-2-carboxylate], the Ki in assay [1] is 0.0398 to 0.316 nM. Besides, the IC50 in assay [2] was 200 to 1260 nM.

In the case of `Cc1cccc(-c2nccc(Nc3ccnc(Nc4cccc(CO)c4)n3)n2)n1` [Compound 45, [3-[[4-[[2-(6-methyl-2-pyridyl)pyrimidin-4-yl]amino]pyrimidin-2-yl]amino]phenyl]methanol], in assay [1], the Ki is 0.0398 to 0.316 nM. In addition, the IC50 in assay [2] is ≤ 20 nM.

As to `Cc1cccc(-c2nccc(Nc3ccnc(Nc4ccc(CN5CC(C)(CO)C5)cc4)n3)n2)n1` [Compound 99, [3-methyl-1-[[4-[[4-[[2-(6-methyl-2-pyridyl)pyrimidin-4-yl]amino]pyrimidin-2-yl]amino]phenyl]methyl]azetidin-3-yl]methanol], the Ki in assay [1] was ≤ 0.0316 nM. For the same molecule, the IC50 in assay [2] is 25.1 to 158 nM.

On to `Cc1cccc(-c2nccc(Nc3ccnc(Nc4ccc(F)c(CN5C[C@@H](C)N[C@@H](C)C5)c4)n3)n2)n1` [Compound 130, N2-[4-fluoro-3-[[rac-(3R,5S)-3,5-dimethylpiperazin-1-yl]methyl]phenyl]-N4-[2-(6-methyl-2-pyridyl)pyrimidin-4-yl]pyrimidine-2,4-diamine], for which the Ki in assay [1] was 0.0398 to 0.316 nM. The IC50 in assay [2] is 25.1 to 158 nM.
